{"source": "paper PMC11206913", "about": "“Amoebicidal Effect of COVID Box Molecules against Acanthamoeba: A Study of Cell Death” (Pharmaceuticals, 2024)", "key": {"[1]": {"test_system": "A. castellanii L10 trophozoites", "assay": "Trophocidal activity, alamarBlue assay", "assay_type": "cell-based", "conditions": "Acanthamoeba castellanii, read-out: IC50 trophocidal effect", "description": "(§1) The trophocidal effect of the 160 molecules from the COVID Box was determined using the alamarBlue™ (Life Technologies, Madrid, Spain) assay as previously described with modifications. Briefly, Acanthamoeba castellanii Neff trophozoites were first seeded in triplicate on a 96-well microtiter plate with 99 μL from a stock solution of 5 × 10^4 cells mL^−1. Subsequently, 1 μL of each compound was added to each well to assess the in vitro amoebicidal activity at 10 μM as the final concentration. Finally, 10 µL of alamarBlue™ Cell Viability Reagent (Bioresource, Europe, Nivelles, Belgium) was added into each well. The plates were then incubated for 96 h at 28 °C with a slight agitation. An EnSpire microplate reader (PerkinElmer, Waltham, MA, USA) was used to measure fluorescence at 570/585 nm. Then, the percentage of inhibition value of the tested COVID Box compounds was determined in comparison with the negative control.\n(§2) Almitrine and Terconazole were the COVID Box products selected to evaluate the amoebicidal effect against the trophozoite stage of […] strains of Acanthamoeba: A. castellanii Neff, A. griffini, A. polyphaga, A. culbertsoni, and A. castellanii L10. The inhibition concentration 50 (IC50) value was calculated based on the alamarBlue™ assay, as previously mentioned."}, "[2]": {"test_system": "A. polyphaga trophozoites", "assay": "Trophocidal activity, alamarBlue assay", "assay_type": "cell-based", "conditions": "Acanthamoeba polyphaga, read-out: IC50 trophocidal effect", "description": "as §1, §2"}, "[3]": {"test_system": "A. castellanii Neff cysts", "assay": "Cysticidal activity, alamarBlue method", "assay_type": "cell-based", "conditions": "Acanthamoeba castellanii, read-out: IC50 cysticidal effect", "description": "(§3) Based on the amoebicidal and cytotoxicity results, the selected compounds, Almitrine and Terconazole, were further investigated on the cyst stage of the various Acanthamoeba strains: A. castellanii Neff, A. griffini, A. polyphaga, A. culbertsoni, and A. castellanii L-10. The cysticidal activity was assessed by the alamarBlue™ method, as described previously. Briefly, in a 96-well plate, a serial dilution of the mentioned drugs was first conducted. Later, cysts were resuspended in PYG medium and were added into each well at a concentration of 5 × 10^4 cysts mL^−1. The plates were examined over a week using an inverted microscope. After 7 days of incubation, the plates were centrifuged at 3000 rpm and the medium was replaced with a new PYG. Finally, 10 μL of alamarBlue^TM Cell Viability Reagent (Biosource, Europe, Nivelles, Belgium) was placed into each well, and the plates were incubated at 28 °C with slight agitation. The emitted fluorescence was measured after 144 h."}, "A. polyphaga cysts": {"test_system": "A. polyphaga cysts", "assay": "Cysticidal activity, alamarBlue method", "assay_type": "cell-based", "conditions": "Acanthamoeba polyphaga, read-out: IC50 cysticidal effect", "description": "as §3"}, "[4]": {"test_system": "Acanthamoeba culbertsoni trophozoites", "assay": "Mitochondrial membrane potential, JC-1 dye", "assay_type": "cell-based", "conditions": "IC90, 24 h", "description": "(§4) Acanthamoeba culbertsoni cells were incubated with IC90 of Terconazole for 24 h. All mean fluorescence intensities were quantified using EVOS M5000 (Life Technologies, Madrid, Spain), processing three different observations in triplicate using an objective (×40), and images of single cells were obtained by a Leica DMI 4000 B inverted confocal microscope with a 63× objective (Leica Microsystems, Germany). All assays were performed in triplicate.\nBased on the JC-1 state and the emitted fluorescence, we distinguished two sets in the cellular population: live cells emit high red fluorescence and affected cells with collapsed mitochondrial membrane potential emit a higher green fluorescence."}, "Acanthamoeba culbertsoni [5]": {"test_system": "Acanthamoeba culbertsoni", "assay": "ATP assay, CellTiter-Glo", "assay_type": "cell-based", "conditions": "IC90, 24 h of treatment", "description": "as §4\nAfter 24 h of drug treatment, the intracellular ATP content was measured using a CellTiter-Glo Luminescent Cell Viability Assay (Promega, Madison, WI, USA). The experiment was carried out according to the manufacturer’s instructions, and the luminescence intensity was measured in a white 96-well plate using an EnSpire® Multimode Plate Reader."}, "[6]": {"test_system": "Acanthamoeba culbertsoni trophozoites", "assay": "ROS generation, CellROX Deep Red staining", "assay_type": "cell-based", "conditions": "IC90, 24 h", "description": "as §4\nThe overproduction of intracellular ROS was measured using the CellROX® Deep red fluorescent probe (Invitrogen, Madrid, Spain)."}, "Acanthamoeba culbertsoni [7]": {"test_system": "Acanthamoeba culbertsoni", "assay": "Plasma membrane permeability, SYTOX Green", "assay_type": "cell-based", "conditions": "IC90, 24 h", "description": "as §4\nThe effect of the study drug on the cell’s membrane permeability was assessed using specific DNA staining. SYTOX® Green (Molecular Probes, Invitrogen, Madrid, Spain) is a DNA-specific dye impermeable to the cells, whose fluorescence increases 500× upon fixation to the DNA. Briefly, […] trophozoites were incubated for 24 h with IC90 of the drug solution. Subsequently, the SYTOX® Green dye was added at a final concentration of 1 μM for 15 min in the dark."}, "Acanthamoeba culbertsoni [8]": {"test_system": "Acanthamoeba culbertsoni", "assay": "Chromatin condensation, Hoechst 33342/PI double stain", "assay_type": "cell-based", "conditions": "IC90, 24 h", "description": "as §4\nA double-stain apoptosis detection kit (Chromatin Condensation/Dead Cell Apoptosis Kit) with Hoechst 33342 and Propidium Iodide (Invitrogen, Madrid, Spain) were used. The experiment was carried out by following the manufacturer’s recommendations."}, "[9]": {"test_system": "Acanthamoeba culbertsoni trophozoites", "assay": "Actin staining with phalloidin-TRITC", "assay_type": "cell-based", "conditions": "IC90", "description": "As in the immunofluorescence staining, cells were first treated with IC90 of Terconazole and fixed with formaldehyde (4%) over a gelatin-precoated coverslip. Later, the cells were permeabilized with Triton (0.1%), followed by a 1 h incubation with phalloidin–tetramethylrhodamine B isothiocyanate (phalloidin-TRITC; Sigma-Aldrich, Madrid, Spain) at room temperature. Cells were finally washed with PBS 1X and mounted using mounting medium with DAPI. Cells were examined by Z-stack imaging using a Leica DMI 4000 B inverted confocal microscope with a 63× objective (Leica Microsystems, Wetzlar, Germany), a 405 nm laser, and a 532 nm laser."}, "[10]": {"test_system": "Acanthamoeba culbertsoni trophozoites", "assay": "Immunofluorescence staining of tubulin", "assay_type": "cell-based", "conditions": "IC90, 24 h", "description": "Immunofluorescence staining of tubulin was performed according to the manufacturer’s staining procedure (Sigma-Aldrich, Madrid, Spain) with slight modifications. Briefly, cells were treated first with Terconazole at IC90. After 24 h of incubation, 50 µL of treated and untreated cell suspensions was placed on a gelatin precoated coverslip for 30 min. Cells were first fixed with formaldehyde (4%) and later permeabilized with Triton (0.3%) for 10 min. Washed with PBS (3X), cells were treated with 5% BSA in PBS 1X/150 mM sucrose for 30 min and washed with glycine 100 mM. At this stage, the trophozoites were incubated with a monoclonal antibody, Anti-α-Tubulin (1:2000), for 2 h at room temperature. Washed twice with PBS, cells were then incubated with the second antibody labeled with Alexa 594 (1:500; from Thermo Fisher Scientific, Rockford, IL, USA) for an hour at room temperature in darkness. Finally, cells were washed with PBS 1X and mounted using mounting medium with DAPI (Sigma-Aldrich; Madrid, Spain). Three-dimensional and maximum projection imaging of the trophozoites was performed by Z-stack imaging using a Leica DMI 4000 B inverted confocal microscope with LAS X software (Leica DMI 4000 B inverted confocal microscope), a 405 nm laser and a 532 nm laser, and a Leica HCX PL Apo 63× Oil Objective."}, "[11]": {"test_system": "Acanthamoeba castellanii L10 trophozoites", "assay": "Comparative label-free proteomics", "assay_type": "cell-based", "conditions": "IC50, 24 h", "description": "The proteomic analysis was conducted according to Arbon et al., 2022 [39]. A quantity of 10^6 cells was first incubated with Terconazole at IC50 for 24 h, then treated and untreated cells were centrifuged and washed with PBS. Both groups were prepared in three biological replicates. The assay was conducted as detailed in our previous work. Results were analyzed using STRING free software and GraphPad 9 prism (Supplementary Material File S2)."}, "Naegleria fowleri": {"test_system": "Naegleria fowleri", "design": "method as in PMID 38718717", "conditions": "previous work of the authors; read-out: IC50 against Naegleria fowleri; cited from earlier work"}, "[12]": {"test_system": "murine macrophages J774A.1", "assay": "Cytotoxicity against murine macrophages, alamarBlue", "assay_type": "cell-based", "description": "The cytotoxicity of the COVID Box compounds was evaluated against murine macrophages of the J774A.1 cell line (ATCC TIB-67), as previously described. As mentioned in the trophocidal assay, cells were allowed to adhere on a 96-well plate in 37 °C in a 5% CO2 humidified incubator. Later, a well-defined volume of the compounds was added at an affinal concentration of 10 µM to each well. Fluorescence emitted by the alamarBlue^TM was measured after 24 h of incubation and the percentage inhibition value was determined. The Cytotoxicity Concentration 50 (CC50) value of Almitrine and Terconazole was determined following the same method described previously for the trophocidal effect."}, "A. griffini trophozoites": {"test_system": "A. griffini trophozoites", "assay": "Trophocidal activity, alamarBlue assay", "assay_type": "cell-based", "conditions": "Acanthamoeba griffini, read-out: IC50 trophocidal effect", "description": "as §1, §2"}, "[13]": {"test_system": "Acanthamoeba culbertsoni trophozoites", "assay": "Trophocidal activity, alamarBlue assay", "assay_type": "cell-based", "conditions": "read-out: IC50 trophocidal effect", "description": "as §1, §2"}, "A. castellanii L10 cysts": {"test_system": "A. castellanii L10 cysts", "assay": "Cysticidal activity, alamarBlue method", "assay_type": "cell-based, Acanthamoeba castellanii L10", "conditions": "Acanthamoeba castellanii, read-out: IC50 cysticidal effect", "description": "as §3"}, "Solubility (remark)": {"assay": "Solubility (remark)", "assay_type": "physicochemical", "conditions": "reason for discarding"}}}
{"smiles": "CC(C)N1CCN(c2ccc(OCC3COC(Cn4cncn4)(c4ccc(Cl)cc4Cl)O3)cc2)CC1", "note": "(stereo not drawn) [Terconazole]", "values": [{"measurement": "IC50", "setting": "[1]", "value": 9.07, "unit": "µM"}, {"measurement": "IC50", "setting": "[2]", "value": 4.62, "unit": "µM"}, {"measurement": "IC50", "setting": "[3]", "value": "10.2 ± 2.01", "unit": "µM"}, {"measurement": "IC50", "setting": "A. polyphaga cysts", "value": "2.24 ± 0.5", "unit": "µM"}, {"measurement": "decrease in the MMP (ratio red/green JC-1 fluorescence) compared to untreated cells", "setting": "[4]", "value": 50, "unit": "%"}, {"measurement": "inhibition in the total ATP level relative to negative control", "setting": "Acanthamoeba culbertsoni [5]", "value": "62.5 ± 2.36", "unit": "%"}, {"measurement": "ROS production (CellROX Deep Red fluorescence)", "setting": "[6]", "value": "significantly higher fluorescence than the untreated cells"}, {"measurement": "plasma membrane permeability (SYTOX green fluorescence)", "setting": "Acanthamoeba culbertsoni [7]", "value": "statistically higher green fluorescence than the negative control"}, {"measurement": "chromatin condensation (Hoechst/PI staining)", "setting": "Acanthamoeba culbertsoni [8]", "value": "presence of intensely bright blue, fluorescent cells"}, {"measurement": "actin distribution (phalloidin-TRITC fluorescence)", "setting": "[9]", "value": "lower fluorescence than the untreated cells"}, {"measurement": "tubulin network (immunofluorescence)", "setting": "[10]", "value": "highly reduced cell shape with lower fluorescence"}, {"measurement": "affected proteins activated", "setting": "[11]", "value": 20, "unit": "%"}, {"measurement": "affected proteins downregulated", "setting": "[11]", "value": 80, "unit": "%"}, {"measurement": "proteins at least twofold differentially expressed", "setting": "[11]; of 4566 identified proteins", "value": 223, "unit": "proteins"}, {"measurement": "IC50", "setting": "Naegleria fowleri", "value": "3.68 ± 0.61", "unit": "µM"}]}
{"smiles": "C=CCNc1nc(NCC=C)nc(N2CCN(C(c3ccc(F)cc3)c3ccc(F)cc3)CC2)n1", "note": "[Almitrine]", "values": [{"measurement": "cytotoxicity compared between the two drugs", "setting": "[12]", "value": "lower cytotoxicity than Terconazole"}, {"measurement": "IC50", "setting": "A. griffini trophozoites", "value": "5.2 ± 0.4", "unit": "µM"}, {"measurement": "IC50", "setting": "[13]", "value": "32.08 ± 0.06", "unit": "µM"}, {"measurement": "IC50", "setting": "A. castellanii L10 cysts", "value": "8.76 ± 0.07", "unit": "µM"}, {"measurement": "IC50", "setting": "[3]", "value": "51.7 ± 2.13", "unit": "µM"}, {"measurement": "solubility", "setting": "Solubility (remark)", "value": "low solubility"}]}
